This is an account of results in US12529101B2, “Methods and reagents for characterizing genomic editing, clonal expansion, and associated applications” (TwinStrand Biosciences, Inc., priority 2018, dated 2026).

Data set [1] relates to human HRAS transgene. Kind of data set: Duplex Sequencing detection of clonally expanded cancer driver mutations after urethane dosing. Type of data set: in vivo, mouse. From the text: (§1) In this example, the impact of urethane is examined in different mouse tissue types (lung, spleen, blood) in an FDA-accepted cancer-predisposed mouse model: Tg.rasH2 (Saitoh et al. Oncogene 1990. PMID 2202951). This mouse contains ˜3 tandem copies of human HRAS with an activating enhancer mutation to boost expression on one hemizygous allele. These mice are predisposed to splenic angiosarcomas and lung adenocarcinomas, and are routinely used for 6 month carcinogenicity studies to substitute for 2 year wild-type animal studies. Tumors found in the mice have usually acquired activating mutations in one copy of the human HRAS protooncogene. Thus, the human HRAS transgene serves a model target cancer driver gene in these animals. Sequence analysis and mutation detection was performed for 4 native mouse genes (Rho, Hp, Ctnnb1, Polr1c), along with the native mouse Hras, Kras, Nras and human HRAS transgene.
(§2) In this example, Tg.rasH2 mice (n=5/group) were dosed with vehicle or a model mutation-inducing agent (e.g., a carcinogenic dose of urethane) (day 1,3,5) and sacrificed on day 29 for mutation detection by Duplex Sequencing in target tissues (lung, spleen) and whole blood. Target endogenous genes (Rho, Hp, Ctnnb1, Polr1c) and the native mouse Hras and human HRAS (trans)genes were also sequenced.

The test system of data set [2] is Tg.rasH2 mice. The data set is described as follows: Duplex Sequencing of mutation induction and mutation spectrum in lung, spleen and blood. Type of data set: in vivo, mouse.
Source text: as §1, §2

SMILES strings stand for the structures.

On to `CCOC(N)=O` [urethane], for which the “treated spleen samples with mutations in human HRAS codon 61” value in data set [1] (Tg.rasH2 mice, day 29, spleen, one at the same position, one on an adjoining base pair) is reported as “two”. Moreover, the “urethane treated lung samples with the human HRAS codon 61 T>A mutation” value in data set [1] (Tg.rasH2 mice, n=5/group, day 29, lung) is on record as 4/5. The “urethane-treated splenic samples with T>A transversion at the human oncogenic HRAS codon 61 hotspot” value in data set [1] (Tg.rasH2 mice, n=5/group, spleen) is listed as 1/5. The “doubling time of the selected clone cells” value in data set [1] (by calculation, 29 days, assuming no cell death) was about 1.8 days. Moreover, in data set [1] (urethane treated lung samples, Tg.rasH2 mice, day 29, T→A transversions in the context CTG), the “variant allele frequencies of the codon 61 mutation in exon 3 of human HRAS” value is on record as 0.1%-1.8. In addition, the “cells encompassed by the highest allele fraction clone” value in data set [1] (within the 29 days of the study) is reported as “more than 90,000 cells”. Also, the “mutation induction in peripheral blood” value in data set [2] (compared with spleen) is reported as “closely mirrored that seen in the spleen”. Besides, the triplet mutation spectrum result in data set [2] (distinguishable from the vehicle control) was “strong propensity for T→A and T→C mutations within the context of “NTG””. In addition, the “tissue-specific variations in the extent of mutation induction” value in data set [2] (lung, spleen, blood) was “lung being observed to be more mutation prone than spleen and blood”.
